Results as given in patent publication US20250302799A1, “PHARMACEUTICAL COMPOSITION CONTAINING FRAXETIN FOR PREVENTION OR TREATMENT OF ENDOMETRIOSIS” (Research & Business Foundation Sungkyunkwan University, priority 2024, published 2025).

How the values were obtained:
[1] = system: normal endometrial stromal cell line T-HESC; experiment: BrdU cell proliferation assay, normal cells; type: cell-based, human; conditions: 48 hours
Experimental: (§1) To examine the effects of fraxetin on cell proliferation, the inventors performed a BrdU cell proliferation assay.
(§2) First, 5×10^3 cells of VK2/E6E7, End1/E6E7, and T-HESC were each distributed in 100 μL of medium in 96-well plates.
(§3) Fraxetin was then administered in a dose-dependent manner (0μM, 5 μM, 10 μM, 20 uM, 50 μM, 100 uM) and cultured for 48 hours, followed by the BrdU assay using a BrdU kit (Cat No: 1167229001, Roche) according to the manufacturer's instructions.
(§4) After 48 hours of incubation, 10 μM BrdU (Bromodeoxyuridine) was added to each well and incubated at 37° C. in a 5% CO2 incubator for 2 hours. The cells were then fixed, reacted with anti-BrdU-POD solution at room temperature for 90 minutes, and washed three times. Finally, 100 μL of 3, 3′, 5, 5′-tetramethylbenzidine substrate was added, and absorbance was measured at wavelengths of 370 nm and 492 nm to analyze cell proliferation.

End1/E6E7 cells [2] = experiment: Mitochondrial membrane potential by JC-1 staining; type: cell-based, human; conditions: End1/E6E7
Experimental: To examine changes in mitochondrial membrane potential (MMP) in endometrial cells induced by fraxetin, the inventors used a mitochondria staining kit (Cat no: CS0390, Sigma-Aldrich) to measure MMP.
In brief, End1/E6E7 and […] endometrial cell lines were cultured in 6-well plates, treated with fraxetin in a dose-dependent manner (0 μM, 5 μM, 10 μM, 20 μM, 50 μM, 100 μM), and incubated at 37° C. in a 5% CO2 incubator for 48 hours. Afterward, the cells were detached using trypsin, centrifuged to obtain cell pellets, resuspended in JC-1 staining solution, and incubated at 37° C. in a 5% CO2 incubator for 20 minutes. The stained cells were centrifuged again, washed with 1X JC-1 staining buffer, and analyzed using flow cytometry to assess changes in mitochondrial membrane potential.

VK2/E6E7 cells [3] = experiment: BrdU cell proliferation assay; type: cell-based, human; conditions: VK2/E6E7, 100 μM, 48 hours
Experimental: as §1, §2, §3, §4

End1/E6E7 cells [4] = experiment: BrdU cell proliferation assay; type: cell-based, human; conditions: End1/E6E7, all concentrations (5-100 μM), 48 hours
Experimental: as §1, §2, §3, §4

VK2/E6E7 cells [5] = experiment: Cell cycle analysis by flow cytometry (PI); type: cell-based, human; conditions: VK2/E6E7, 48 hours
Experimental: (§5) The inventors performed flow cytometry to examine the changes in the cell cycle of endometrial cells induced by fraxetin.
(§6) In brief, 5×10^3 cells of VK2/E6E7, End1/E6E7, and T-HESC were treated with fraxetin in a dose-dependent manner (0 μM, 5 μM, 10 μM, 20 μM, 50 μM, 100 μM) and incubated for 48 hours at 37° C. in a 5% CO2 incubator.
(§7) Afterward, cells were detached from the culture plates using trypsin, washed with 0.1% BSA/PBS, and fixed in 70% ethanol for 24 hours. The cells were then washed with 0.1% BSA/PBS, treated with RNase A (Sigma), and stained with PI. The stained solution transferred to FACS tubes, and fluorescence intensity and cell cycle were analyzed using a flow cytometer.

End1/E6E7 cells [6] = experiment: Cell cycle analysis by flow cytometry (PI); type: cell-based, human; conditions: End1/E6E7, 48 hours
Experimental: as §5, §6, §7

VK2/E6E7 cells [7] = experiment: Apoptosis by Annexin V and propidium iodide staining; type: cell-based, human
Experimental: (§8) To assess the apoptosis-inducing effect of fraxetin in endometrial cells, the inventors used a FITC Annexin V Apoptosis Detection Kit I (BD Sciences).
(§9) First, VK2/E6E7 and End1/E6E7 cells were cultured in 6-well plates, treated with fraxetin in a dose-dependent manner (0 μM, […], 10 μM, 20 µM, 50 μM, 100 μM), and incubated for 48 hours at 37° C. in a 5% CO2 incubator. The cells were then detached using trypsin, washed with PBS, and mixed slowly with 1 mL of 1X binding buffer. After centrifugation, the cell pellet was resuspended in 200 μL of 1X binding buffer. The suspension (100 μL) was transferred to a 1.5 mL brown tube, and 5 μL of Annexin V and PI (propidium iodide) were added, followed by staining at room temperature for 15 minutes. After adding 400 μL of 1X binding buffer, the stained solution was transferred to a 5 mL FACS tube, and the number of apoptotic cells was measured by analyzing fluorescence intensity using flow cytometry.

End1/E6E7 cells [8] = experiment: as above; type: cell-based, human
Experimental: as §8, §9

endometriotic lesions = experiment: Endometriosis animal model, lesion size and histology; type: in vivo, C57/BL6 mice; conditions: fraxetin 30mg/kg orally for four weeks
Experimental: Seven-week-old female C57/BL6 mice were purchased from DBL (Eumseong, South Korea). After a 7-day acclimation period, they were subcutaneously injected with 2 mg/50 μL of progesterone two days before surgery. After anesthetizing the mice, the […] was excised and autografted onto the peritoneum to induce endometriosis. After culturing for two weeks, the mice were randomly assigned to groups and administered either a vehicle as the control, fraxetin at 30mg/kg, or dienogest at 1 mg/kg orally for four weeks.
For histological analysis, tissues were lesion prepared as paraffin blocks and sectioned onto slides. Hematoxylin-eosin (H&E) staining was performed using Mayer's hemalum solution and a Prussian Blue staining kit (Cat. Ab150674, Abcam) histological analysis and for immunohistochemistry. Immunohistochemistry was conducted using an avidin-biotin complex kit (Cat. PK-4001, Vector Laboratories).

VK2/E6E7 cells [9] = experiment: Mitochondrial membrane potential by JC-1 staining; type: cell-based, human; conditions: VK2/E6E7
VK2/E6E7 cells [10] = experiment: Mitochondrial respiration (XF Cell Mitostress kit); type: cell-based, human
Experimental: (§10) To confirm the effects of fraxetin on mitochondrial respiration in endometrial cells, the inventors used an XF Cell Mitostress kit.
(§11) In brief, endometrial cells were seeded in 24-well plates and cultured at 37° C. in a 5% CO2 incubator for 16 hours, followed by treatment with […]. Subsequently, various mitochondrial respiration parameters were measured by sequential treatment with oligomycin, FCCP, rotenone, and antimycin A in the two cell lines.

End1/E6E7 cells [11] = experiment: Mitochondrial respiration (XF Cell Mitostress kit); type: cell-based, human
Experimental: as §10, §11

COc1cc2ccc(=O)oc2c(O)c1O [fraxetin]
cell proliferation in normal endometrial cells [1]: no changes
relative membrane potential loss rate increase (End1/E6E7 cells [2]): 1.8 fold
reduction of cell proliferation (VK2/E6E7 cells [3]): approximately 40%
cell proliferation (remaining) (End1/E6E7 cells [4]): below 50%
number of cells in the Sub-G1 phase (VK2/E6E7 cells [5]): increase
number of cells in the Sub-G1 phase (End1/E6E7 cells [6]): increase
early and late apoptosis cell populations (VK2/E6E7 cells [7]; VK2/E6E7, Example 6): tended to increase
early and late apoptosis (VK2/E6E7 cells [7]; VK2/E6E7, Example 7 comparison fraxetin vs dienogest): induced both early and late apoptosis
early and late apoptosis cell populations (End1/E6E7 cells [8]; End1/E6E7, Example 6): tended to increase
early and late apoptosis (End1/E6E7 cells [8]; End1/E6E7, Example 7 comparison fraxetin vs dienogest): induced both early and late apoptosis
immune cell infiltration (tissue after iron staining) (endometriotic lesions): increase
size of endometriotic lesions (endometriotic lesions; vs vehicle control): significantly reduced
relative membrane potential loss rate increase (VK2/E6E7 cells [9]): 2.6 fold
ATP production (VK2/E6E7 cells [10]): decreased
basal respiration (VK2/E6E7 cells [10]): decreased
ATP production (End1/E6E7 cells [11]): significantly decreased
basal respiration (End1/E6E7 cells [11]): significantly decreased
maximal respiration (End1/E6E7 cells [11]): significantly decreased
reserve respiratory capacity compared to control (End1/E6E7 cells [11]): halved
